For one test, the target named is T1, human progesterone receptor-A [PRA] isoform (Homo sapiens, UniProt P06401).
T1 construct: host or cells: insect SF21 cells (baculovirus)
T1 sequence (P06401 1-769 isoform P06401-2): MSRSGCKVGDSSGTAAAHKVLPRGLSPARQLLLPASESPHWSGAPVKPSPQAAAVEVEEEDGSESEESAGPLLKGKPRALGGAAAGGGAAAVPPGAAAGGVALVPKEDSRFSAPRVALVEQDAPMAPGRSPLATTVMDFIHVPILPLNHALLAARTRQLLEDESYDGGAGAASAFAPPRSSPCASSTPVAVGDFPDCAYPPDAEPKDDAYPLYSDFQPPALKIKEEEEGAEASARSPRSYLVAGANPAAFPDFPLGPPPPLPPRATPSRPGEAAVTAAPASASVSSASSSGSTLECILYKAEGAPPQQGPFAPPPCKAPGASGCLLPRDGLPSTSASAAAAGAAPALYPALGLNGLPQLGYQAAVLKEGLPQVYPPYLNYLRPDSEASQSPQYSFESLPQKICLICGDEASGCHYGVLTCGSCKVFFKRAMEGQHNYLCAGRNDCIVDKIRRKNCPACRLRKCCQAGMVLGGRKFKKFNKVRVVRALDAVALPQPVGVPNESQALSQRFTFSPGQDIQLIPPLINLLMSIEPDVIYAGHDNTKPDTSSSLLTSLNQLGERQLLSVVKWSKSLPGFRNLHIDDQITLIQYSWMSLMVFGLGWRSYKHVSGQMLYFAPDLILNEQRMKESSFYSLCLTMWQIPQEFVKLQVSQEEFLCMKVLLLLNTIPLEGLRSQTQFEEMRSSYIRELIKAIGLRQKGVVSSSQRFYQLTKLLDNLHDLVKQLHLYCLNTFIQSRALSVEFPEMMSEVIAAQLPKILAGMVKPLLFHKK
The test is described as follows: Radioligand binding with human progesterone receptor cytosol ([3H]-progesterone competition). Particulars: Ki (nM) PR.
Experimental: Both receptor cDNAs were cloned into baculovirus expression vectors and expressed in insect SF21 cells.
Stock solutions (32 mM) of compounds were prepared in dimethylsulfoxide (DMSO), and 50× solutions of test compounds were prepared from the 32 mM solution with a 50:50 mixture of DMSO/ethanol. The 50× solution was then diluted with binding buffer that contained 10 mM Tri-HCl, 1.5 mM EDTA, 10% glycerol, 1 mM DTT, 20 mM sodium molybdate, pH 7.5 @4° C. 1% DMSO/ethanol was present in the binding assay.
For PR binding assays, [^3H]Prog (˜36,000 dpm (˜0.8 nM)), PRA cytosol (˜40 μg protein), test compounds and binding buffer were mixed in a total volume of 200 μL and incubated at 4° C at overnight in a plate shaker. Specific binding was defined as the difference between binding of [^3H]Prog in the absence and in the presence of 3 μM unlabelled Prog.
After an overnight incubation, 50 μL of hydroxyapatite (25% weight/volume) slurry were added to each well and plates were incubated for 10 min at 0° C. in a plate shaker. Plates were suctioned with a Millipore vacuum manifold and each well was rinsed with 300 μL of ice-cold binding buffer. A 250 μL aliquot of Packard Microscint-20 was added to each well and the wells were shaken at room temperature for 20 minutes. The amount of radioactivity was determined with a Packard TopCount plate reader.
The Ki of test compounds was determined using the Cheng-Prusoff equation Ki=IC50/(1+[L*]/[KL]) where L* is the concentration of radioligand and KL is the dissociation constant of the radioligand determined from saturation analysis.
Regarding `COC(=O)CN(C)C(=O)Oc1cccc(C2Oc3cccc(OC)c3-c3ccc4c(c32)C(C)=CC(C)(C)N4)c1` (centres unmarked) [Example 311, 2,5-Dihydro-10-methoxy-5-(3-(N-methyl-N-(carbomethoxymethyl)aminocarbonyloxy)phenyl)-2,2,4-trimethyl-1H-[1]benzopyrano[3,4-f]quinoline], the inhibition constant Ki is not below 10000 nM.

Staying with this test, now noted: PRA cytosol expressed in insect SF21 cells, [3H]Prog ~0.8 nM, 4° C. overnight; Ki by Cheng-Prusoff, KL ~4.5 nM; read-out: Ki (nM) PR.
As to `COc1cccc2c1-c1ccc3c(c1C(C)O2)C(C)=CC(C)(C)N3` (centres unmarked) [Example 57, 2,5-Dihydro-10-methoxy-2,2,4,5-tetramethyl-1H-[1]benzopyrano[3,4-f]quinoline], the Ki is 4280 nM.

For `CCOC(=O)C1Oc2cccc(OC)c2-c2ccc3c(c21)C(C)=CC(C)(C)N3` (centres unmarked) [Example 208, 2,5-Dihydro-10-methoxy-5-(carboethoxy)-2,2,4-trimethyl-1H-[1]benzopyrano[3,4-f]quinoline], the Ki turned out to be 970 nM.

Consider `COc1cccc2c1-c1ccc3c(c1C(CC(C)=O)O2)C(C)=CC(C)(C)N3` (centres unmarked) [Example 45, 1-(2,5-Dihydro-10-methoxy-2,2,4-trimethyl-1H-[1]benzopyrano[3,4-f]quinolin-5-yl)-2-propanone], for which the inhibition constant Ki was not below 10000 nM.

As for `C=CCC1Oc2cccc(C=O)c2-c2ccc3c(c21)C(C)=CC(C)(C)N3` (centres unmarked) [Example 330, 2,5-Dihydro-10-formyl-5-(3-propenyl)-2,2,4-trimethyl-1H-[1]benzopyrano[3,4-f]quinoline], the Ki stood at 53 nM.

As for `CNc1cc(C)cc(C2Oc3cccc(OC)c3-c3ccc4c(c32)C(C)=CC(C)(C)N4)c1` (centres unmarked) [Example 114, 3-(2,5-Dihydro-10-methoxy-2,2,4-trimethyl-1H-[1]benzopyrano[3,4-f]quinolin-5-methyl)-5,N-dimethylbenzenamine], the Ki is not below 10000 nM.

`COc1cccc2c1-c1ccc3c(c1C(c1cc(Cl)cc(Cl)c1)O2)C(C)=CC(C)(C)N3` (centres unmarked) [Example 19, 5-(3,5-Dichlorophenyl)-2,5-dihydro-10-methoxy-2,2,4-trimethyl-1H-[1]benzopyrano[3,4-f]quinoline]: the Ki is 4970 nM.

On to `CC1=CC(C)(C)Nc2ccc3c(c21)[C@H]([C@@H]1C=CCC1)Oc1ccc(O)c(Cl)c1-3` [Example 221, (−)2,5(S)-Dihydro-9-hydroxy-10-chloro-2,2,4-trimethyl-5-(3S-cyclopentenyl)-1H-[1]benzopyrano[3,4-f]quinoline], for which the Ki was determined as 4.2 nM.

Take `COc1cccc2c1-c1ccc3c(c1C(CC1=CCCCC1)O2)C(C)=CC(C)(C)N3` (centres unmarked) [Example 145, 2,5-Dihydro-10-methoxy-5-(1-cyclohexenylmethyl)-2,2,4-trimethyl-1H-[1]benzopyrano[3,4-f]quinoline]: the inhibitory constant (Ki) is not below 10000 nM.

For `C=CCOc1ccc2c(c1OC)-c1ccc3c(c1C(CC=C)O2)C(C)=CC(C)(C)N3` (centres unmarked) [Example 293, 10-Methoxy-9-(3-propenyloxy)-5-(3-propenyl)-2,2,4-trimethyl-1H-2,5-dihydro[1]benzopyrano[3,4-f]quinoline], the Ki came to 3740 nM.

For `COc1c(O)ccc2c1-c1ccc3c(c1C(Cc1cc(F)cc(F)c1)O2)C(C)=CC(C)(C)N3` (centres unmarked) [Example 382, 2,5-Dihydro-9-hydroxy-10-methoxy-2,2,4-trimethyl-5-(3-5-difluorophenylmethyl)-1H-[1]benzopyrano[3,4-f]quinoline], the Ki was 150 nM.

For `COc1cccc2c1-c1ccc3c(c1C(CCN(C)C)O2)C(C)=CC(C)(C)N3` (centres unmarked) [Example 64, 2,5-Dihydro-10-methoxy-2,2,4,N,N-pentamethyl-1H-[1]benzopyrano[3,4-f]quinoline5-ethanamine], the Ki is 1670 nM.

Consider `COc1cccc2c1-c1ccc3c(c1C(C1C=CCC1)O2)C(C)=CC(C)(C)N3` (racemic) [Example 136], for which the inhibition constant Ki worked out at 2700 nM.

In the case of `C=CC1Oc2cccc(OC)c2-c2ccc3c(c21)C(C)=CC(C)(C)N3` (centres unmarked) [Example 320, 2,5-Dihydro-10-methoxy-5-ethenyl-2,2,4-trimethyl-1H-[1]benzopyrano[3,4-f]quinoline], the Ki amounted to 3050 nM.

`CC1=CC(C)(C)Nc2ccc3c(c21)C(c1ccccc1)Oc1ccc2c(c1-3)OCO2` (centres unmarked) [Example 227, 9-10-Methylenedioxy-5-phenyl-2,2,4-trimethyl-1H-2,5-dihydro-[1]benzopyrano[3,4-f]quinoline]: the Ki came out at 1930 nM.

Consider `COc1cccc2c1-c1ccc3c(c1C(C1CCCCC1)O2)C(C)=CC(C)(C)N3` (centres unmarked) [Example 212, 2,5-Dihydro-10-methoxy-5-(cyclohexyl)-2,2,4-trimethyl-1H-[1]benzopyrano[3,4-f]quinoline], for which the inhibition constant Ki was not below 10000 nM.

As to `C=CCC1Oc2ccc(OC(=O)CCC(=O)N(C)C)c(Cl)c2-c2ccc3c(c21)C(C)=CC(C)(C)N3` (racemic) [Example 421, (+/−)2,5-Dihydro-9-(4-N,N-dimethylamino-4-oxo-butanoyloxy)-10-chloro-2,2,4-trimethyl-5-allyl-1H-[1]benzopyrano[3,4-f]quinoline], the Ki came out at 11.6 nM.

For `COc1cccc2c1-c1ccc3c(c1C(=Cc1ccccc1)O2)C(C)=CC(C)(C)N3` (mixture of isomers) [Example 18, 2,5-Dihydro-10-methoxy-2,2,4-trimethyl-5-(phenylmethylene)-1H-[1]benzopyrano[3,4-f]quinoline], the Ki came out at 1040 nM.

For the compound `CCC1([C@@H]2Oc3ccc(O)c(OC)c3-c3ccc4c(c32)C(C)=CC(C)(C)N4)CC=CCC1` (single isomer, unassigned; (-)) [Example 263], the Ki turned out to be 59.6 nM.

For `COc1c(O)ccc2c1-c1ccc3c(c1/C(=C/c1ccccc1)O2)C(C)=CC(C)(C)N3` [Example 365, Z-5-(Benzylidenyl)-9-hydroxy-10-methoxy-2,2,4-trimethyl-1H-2,5-dihydro], the Ki was determined as 98 nM.

As to `C#CCOc1cccc(C2Oc3cccc(OC)c3-c3ccc4c(c32)C(C)=CC(C)(C)N4)c1` (centres unmarked) [Example 92, 2,5-Dihydro-10-methoxy-2,2,4-trimethyl-5-[3-(2-propynyloxy)phenyl]-1H-[1]benzopyrano[3,4-f]quinoline], the inhibition constant Ki is not below 10000 nM.

For the compound `CCCCC1Oc2cccc(OC)c2-c2ccc3c(c21)C(C)=CC(C)(C)N3` (centres unmarked) [Example 20, 5-Butyl-2,5-dihydro-10-methoxy-2,2,4-trimethyl-1H-[1]benzopyrano[3,4-f]quinoline], the inhibitory constant (Ki) is 1680 nM.

For `COc1c(O)ccc2c1-c1ccc3c(c1C(c1cccs1)O2)C(C)=CC(C)(C)N3` (centres unmarked) [Example 274, 2,5-Dihydro-9-hydroxy-10-methoxy-2,2,4-trimethyl-5-(2-thienyl)-1H-[1]benzopyrano[3,4-f]quinoline], the inhibition constant Ki turned out to be 386 nM.

For the compound `COc1cccc2c1-c1ccc3c(c1C(Cc1ccccc1)O2)C(C)=CC(C)(C)N3` (centres unmarked) [Example 53, 2,5-Dihydro-10-methoxy-2,2,4-trimethyl-5-(phenylmethyl)-1H-[1]benzopyrano[3,4-f]quinoline], the Ki was found to be 2910 nM.

Regarding `CC1=CC(C)(C)Nc2ccc3c(c21)/C(=C/c1cccc(F)c1)Oc1ccc(O)c(Cl)c1-3` [Example 367, Z-5-(3-Fluorobenzylidenyl)-10-chloro-9-hydroxy-2,2,4-trimethyl-2,5-dihydro-1H-[1]benzopyrano[3,4-f]quinoline], the Ki worked out at 7.6 nM.

On to `COc1cccc2c1-c1ccc3c(c1C(C1CCCC1)O2)C(C)=CC(C)(C)N3` (centres unmarked) [Example 209, 2,5-Dihydro-10-methoxy-5-(cyclopentyl)-2,2,4-trimethyl-1H-[1]benzopyrano[3,4-f]quinoline], for which the inhibition constant (Ki) worked out at 5460 nM.

These data come from patent US6506766B1 (Abbott Laboratories, priority 1998, dated 2003).
